Consider 16 compounds from patent US11142526B2, “Spirocycle compounds and methods of making and using same” (H. Lundbeck A/S, priority 2017, dated 2021).

Assay [1] has as its target T1, MAGL (Mus musculus (Mouse), UniProt O35678). Briefly: In vitro competitive activity-based protein profiling, mouse brain proteome. The following applies: for inhibition at 1 µM: mouse; for IC50: mouse brain. In kind it is biochemical.
The target of assay [2] is MAGL (Homo sapiens (Human), UniProt Q99685). The assay is described as follows: In vitro competitive activity-based protein profiling (gel-based, FP-Rh or HT-01 probe). In kind it is biochemical. The settings on record: for IC50: read-out: MAGL Human PC3 (IC50). As to the method: In Vitro Competitive Activity-Based Protein Profiling.
Proteomes (human prefrontal cortex or cell membrane fractions) (50 μL, 1.0 mg/mL total protein concentration) were preincubated with varying concentrations of inhibitors at 37° C. After 30 min, FP-Rh or HT-01 (1.0 μL, 50 μM in DMSO) was added and the mixture was incubated for another 30 min at room temperature. Reactions were quenched with SDS loading buffer (15 μL—4×) and run on SDS-PAGE.

The target of assay [3] is T1, MAGL. The assay is described as follows: Mouse brain proteomes from inhibitor treated mice (oral gavage, brain MAGL activity 4 h after administration). The following applies: 5 mg/kg oral gavage. In kind it is in vivo. The protocol:
Preparation of Mouse Brain Proteomes from Inhibitor Treated Mice.
Inhibitors were administered to wild-type C57B1/6J by oral gavage in a vehicle of polyethylene glycol.

The mark [4] stands for this setting: human PFC (prefrontal cortex), read-out: MAGL % Inhibition at 1 μM (human PFC).
[5] abbreviates: human PC3, read-out: MAGL % Inhibition at 1 μM (human PC3).

Each structure is given as a SMILES string. Where two headings read alike, the source gives them in different places. Where only a bound is given, the exact number is not on record here.

MAGL (Homo sapiens (Human), UniProt Q99685), sequence (Q99685 whole entry): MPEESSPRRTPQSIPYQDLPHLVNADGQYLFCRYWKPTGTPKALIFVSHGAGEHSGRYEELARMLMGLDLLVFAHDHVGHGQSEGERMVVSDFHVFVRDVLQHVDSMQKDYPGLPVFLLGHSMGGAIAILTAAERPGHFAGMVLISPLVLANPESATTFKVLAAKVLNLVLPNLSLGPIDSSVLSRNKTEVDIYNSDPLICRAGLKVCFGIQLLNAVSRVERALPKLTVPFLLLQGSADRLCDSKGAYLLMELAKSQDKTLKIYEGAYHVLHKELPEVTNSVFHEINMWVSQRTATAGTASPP
T1 sequence (O35678 whole entry): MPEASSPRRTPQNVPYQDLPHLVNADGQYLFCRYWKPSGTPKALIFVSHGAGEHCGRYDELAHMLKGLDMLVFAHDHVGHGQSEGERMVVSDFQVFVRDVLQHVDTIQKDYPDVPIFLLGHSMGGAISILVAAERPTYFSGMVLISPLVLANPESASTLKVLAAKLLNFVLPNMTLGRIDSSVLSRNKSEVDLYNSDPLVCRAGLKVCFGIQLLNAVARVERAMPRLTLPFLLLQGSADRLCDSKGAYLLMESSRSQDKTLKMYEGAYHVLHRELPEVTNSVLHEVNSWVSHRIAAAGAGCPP

For `O=C(OC(C(F)(F)F)C(F)(F)F)N1CCC2(CCCN2C(=O)c2cc3ccc(Cl)cc3s2)CC1` [Example 60, 1,1,1,3,3,3-Hexafluoropropan-2-yl 1-(6-chlorobenzo[b]thiophene-2-carbonyl)-1,8-diazaspiro[4.5] decane-8-carboxylate], on MAGL [1], the inhibition at 1 µM was above 75% and the IC50 is below 100 nM. For the same compound, the IC50 at MAGL [2] (human PC3) was below 100 nM. Moreover, the “MAGL % Inhibition at 5 mg/kg (Mouse)” value at MAGL [3] was “### (% inhibition is greater than or equal to 75%)”.
In the case of `CN(Cc1cc2cc(Cl)ccc2s1)C1(C)CCN(C(=O)OC(C(F)(F)F)C(F)(F)F)CC1` [Example 62, 1,1,1,3,3,3-Hexafluoropropan-2-yl 4-(((5-chlorobenzo[b]thiophen-2-yl)methyl)(methyl)amino)-4-methylpiperidine-1-carboxylate], on MAGL [1], the inhibition at 1 µM was above 75% and the IC50 is below 100 nM. Moreover, the IC50 at MAGL [2] (human PC3) is below 100 nM. For the same compound, the “MAGL % Inhibition at 5 mg/kg (Mouse)” value on MAGL [3] is listed as “### (% inhibition is greater than or equal to 75%)”.
At MAGL [1], `Cc1cc(C)c2[nH]c(C(=O)N3CCCC34CCN(C(=O)OC(C(F)(F)F)C(F)(F)F)CC4)c(C)c2c1` [Example 63, 1,1,1,3,3,3-Hexafluoropropan-2-yl 1-(3,5,7-trimethyl-1H-indole-2-carbonyl)-1,8-diazaspiro[4.5] decane-8-carboxylate] displayed an inhibition at 1 µM above 75% and an IC50 below 100 nM. On MAGL [2] (human PC3), the IC50 is below 100 nM. The “MAGL % Inhibition at 5 mg/kg (Mouse)” value on MAGL [3] is “### (% inhibition is greater than or equal to 75%)”.
For `Cn1cc(Cl)c(C(=O)N2CCCC23CCN(C(=O)OC(C(F)(F)F)C(F)(F)F)CC3)n1` [Example 120, 1,1,1,3,3,3-Hexafluoropropan-2-yl 1-(4-chloro-1-methyl-1H-pyrazole-3-carbonyl)-1,8-diazaspiro[4.5] decane-8-carboxylate], the inhibition at 1 µM on MAGL [1] and at MAGL [2] (setting [4]) was above 75% throughout. The IC50 at MAGL [2] (human PC3) was below 100 nM. At MAGL [3], the “MAGL % Inhibition at 5 mg/kg (Mouse)” value is on record as “### (% inhibition is greater than or equal to 75%)”.
Take `O=C(O)C1CCN(c2nc(C(F)(F)F)ccc2CN2CCCC23CCN(C(=O)OC(C(F)(F)F)C(F)(F)F)CC3)CC1` [Example 123, 1-(3-((8-(((1,1,1,3,3,3-Hexafluoropropan-2-yl)oxy)carbonyl)-1,8-diazaspiro[4.5]decan-1-yl)methyl)-6-(trifluoromethyl)pyridin-2-yl)piperidine-4-carboxylic acid]: the inhibition at 1 µM at MAGL [1] and at MAGL [2] (setting [4]) was above 75% each time. Moreover, the IC50 on MAGL [2] (human PC3) was below 100 nM. Also, the “MAGL % Inhibition at 5 mg/kg (Mouse)” value at MAGL [3] is on record as “### (% inhibition is greater than or equal to 75%)”.
For the compound `Cc1nc2ccc(Cl)nn2c1C(=O)N1CCCC12CCN(C(=O)OC(C(F)(F)F)C(F)(F)F)CC2` [Example 142, 1,1,1,3,3,3-Hexafluoropropan-2-yl 1-(6-chloro-2-methylimidazo[1,2-b]pyridazine-3-carbonyl)-1,8-diazaspiro[4.5] decane-8-carboxylate], the inhibition at 1 µM on MAGL [1], on MAGL [2] (setting [5]) and on MAGL [2] (setting [4]) was above 75% each time. Besides, the IC50 on MAGL [2] (human PC3) was below 100 nM. For the same compound, at MAGL [3], the “MAGL % Inhibition at 5 mg/kg (Mouse)” value is “### (% inhibition is greater than or equal to 75%)”.
As for `Cc1nc2cccnn2c1C(=O)N1CCCC12CCN(C(=O)OC(C(F)(F)F)C(F)(F)F)CC2` [Example 143, 1,1,1,3,3,3-Hexafluoropropan-2-yl 1-(2-methyl-imidazo[1,2-b]pyridazine-3-carbonyl)-1,8-diazaspiro[4.5] decane-8-carboxylate], the inhibition at 1 µM on MAGL [1], at MAGL [2] (setting [5]) and at MAGL [2] (setting [4]) was above 75% each time. Moreover, the IC50 on MAGL [2] (human PC3) was below 100 nM. At MAGL [3], the “MAGL % Inhibition at 5 mg/kg (Mouse)” value is “### (% inhibition is greater than or equal to 75%)”.
Consider `O=C(OC(C(F)(F)F)C(F)(F)F)N1CCC2(CCCN2C(=O)c2cnn3c2CCCC3)CC1` [Example 148, 1.1,1,3,3,3-Hexafluoropropan-2-yl 1-(4,5,6,7-tetrahydropyrazolo [1,5-a]pyridine-3-carbonyl)-1,8-diazaspiro[4.5] decane-8-carboxylate], for which the inhibition at 1 µM on MAGL [1], on MAGL [2] (setting [5]) and at MAGL [2] (setting [4]) was above 75% each time. In addition, at MAGL [2] (human PC3), the IC50 was below 100 nM. Moreover, the “MAGL % Inhibition at 5 mg/kg (Mouse)” value at MAGL [3] is on record as “### (% inhibition is greater than or equal to 75%)”.
Consider `O=C(OC(C(F)(F)F)C(F)(F)F)N1CCC2(CCCN2C(=O)c2cc3nc(Cl)ccn3n2)CC1` [Example 151, 1,1,1,3,3,3-Hexafluoropropan-2-yl 1-(5-chloropyrazolo[1,5-a]pyrimidine-2-carbonyl)-1,8-diazaspiro[4.5] decane-8-carboxylate], for which the inhibition at 1 µM at MAGL [1], at MAGL [2] (setting [5]) and at MAGL [2] (setting [4]) was above 75% each time. The “MAGL % Inhibition at 5 mg/kg (Mouse)” value at MAGL [3] is “## (% inhibition is less than 75% and greater than 25%)”.
As to `O=C(OC(C(F)(F)F)C(F)(F)F)N1CCC2(CCCN2C(=O)c2cn3c(n2)CN(CC2CC2)CC3)CC1` [Example 154, 1,1,1,3,3,3-Hexafluoropropan-2-yl 1-(7-(cyclopropylmethyl)-5,6,7,8-tetrahydroimidazo[1,2-a]pyrazine-2-carbonyl)-1,8-diazaspiro[4.5] decane-8-carboxylate], the inhibition at 1 µM at MAGL [1], on MAGL [2] (setting [5]) and at MAGL [2] (setting [4]) was above 75% in each case. Further, the IC50 at MAGL [2] (human PC3) is below 100 nM. For the same compound, on MAGL [3], the “MAGL % Inhibition at 5 mg/kg (Mouse)” value is “### (% inhibition is greater than or equal to 75%)”.
For `O=C(OC(C(F)(F)F)C(F)(F)F)N1CCC2(CCCN2C(=O)c2cc3n(n2)CCN(C2CC2)C3)CC1` [Example 155, 1,1,1,3,3,3-Hexafluoropropan-2-yl 1-(5-cyclopropyl-4,5,6,7-tetrahydropyrazolo [1,5-a]pyrazine-2-carbonyl)-1,8-diazaspiro[4.5] decane-8-carboxylate], the inhibition at 1 µM at MAGL [1], at MAGL [2] (setting [5]) and on MAGL [2] (setting [4]) was above 75% each time. For the same compound, the IC50 at MAGL [2] (human PC3) is below 100 nM. Moreover, on MAGL [3], the “MAGL % Inhibition at 5 mg/kg (Mouse)” value is given as “### (% inhibition is greater than or equal to 75%)”.
On to `O=C(OC(C(F)(F)F)C(F)(F)F)N1CCC2(CCCN2C(=O)c2cn3c(n2)CN(C2COC2)CC3)CC1` [Example 161, 1.1,1,3,3,3-Hexafluoropropan-2-yl 1-(7-(oxetan-3-yl)-5,6,7,8-tetrahydroimidazo [1,2-a]pyrazine-2-carbonyl)-1,8-diazaspiro[4.5] decane-8-carboxylate], for which the inhibition at 1 µM at MAGL [1] and at MAGL [2] (setting [5]) was above 75% throughout. The IC50 at MAGL [2] (human PC3) was below 100 nM. For the same compound, on MAGL [3], the “MAGL % Inhibition at 5 mg/kg (Mouse)” value is “## (% inhibition is less than 75% and greater than 25%)”.
Consider `COCC(C)N1CCn2cc(C(=O)N3CCCC34CCN(C(=O)OC(C(F)(F)F)C(F)(F)F)CC4)nc2C1` (stereo not shown) [Example 169, 1.1,1,3,3,3-Hexafluoropropan-2-yl 1-(7-(1-methoxypropan-2-yl)-5,6,7,8-tetrahydroimidazo [1,2-a]pyrazine-2-carbonyl)-1,8-diazaspiro[4.5] decane-8-carboxylate], for which the inhibition at 1 µM on MAGL [1], on MAGL [2] (setting [5]) and at MAGL [2] (setting [4]) was above 75% throughout. Also, the IC50 on MAGL [2] (human PC3) is below 100 nM. Moreover, the “MAGL % Inhibition at 5 mg/kg (Mouse)” value at MAGL [3] was “# (% inhibition less or equal to 25%)”.
In the case of `CC1(CN2CCn3cc(C(=O)N4CCCC45CCN(C(=O)OC(C(F)(F)F)C(F)(F)F)CC5)nc3C2)COC1` [Example 170, 1,1,1,3,3,3-Hexafluoropropan-2-yl 1-(7-((3-methyloxetan-3-yl)methyl)-5,6,7,8-tetrahydroimidazo [1,2-a]pyrazine-2-carbonyl)-1,8-diazaspiro[4.5] decane-8-carboxylate], the inhibition at 1 µM at MAGL [1], at MAGL [2] (setting [5]) and at MAGL [2] (setting [4]) was above 75% throughout. The IC50 on MAGL [2] (human PC3) is below 100 nM. In addition, the “MAGL % Inhibition at 5 mg/kg (Mouse)” value on MAGL [3] was “# (% inhibition less or equal to 25%)”.
For `CC1(NC(=O)c2cn3c(n2)CN(C2CC2)CC3)CCN(C(=O)OC(C(F)(F)F)C(F)(F)F)CC1` [Example 174, 1,1,1,3,3,3-Hexafluoropropan-2-yl 4-(7-cyclopropyl-5,6,7,8-tetrahydroimidazo[1,2-a]pyrazine-2-carboxamido)-4-methylpiperidine-1-carboxylate], the inhibition at 1 µM on MAGL [1], on MAGL [2] (setting [5]) and at MAGL [2] (setting [4]) was above 75% throughout. Further, the IC50 on MAGL [2] (human PC3) is below 100 nM. Further, on MAGL [3], the “MAGL % Inhibition at 5 mg/kg (Mouse)” value is recorded as “### (% inhibition is greater than or equal to 75%)”.
For `CN(C(=O)C1(c2cnccn2)CC1)C1(C)CCN(C(=O)OC(C(F)(F)F)C(F)(F)F)CC1` [Example 176, 1,1,1,3,3,3-Hexafluoropropan-2-yl 4-methyl-4-(N-methyl-1-(pyrazin-2-yl)cyclopropane-1-carboxamido) piperidine-1-carboxylate], the inhibition at 1 µM on MAGL [1], at MAGL [2] (setting [5]) and on MAGL [2] (setting [4]) was above 75% throughout. Also, the IC50 on MAGL [2] (human PC3) is below 100 nM. In addition, on MAGL [3], the “MAGL % Inhibition at 5 mg/kg (Mouse)” value was “# (% inhibition less or equal to 25%)”.

Usually inhibition stands for the drop in the measured response relative to a control, in per cent. The term IC50 denotes the midpoint of a concentration-inhibition curve.
